Consider 16 compounds from patent publication US6794396B2, “Substituted pyridines useful for inhibiting cholesteryl ester transfer protein activity” (Pharmacia Corporation, priority 1998, dated 2004).

As usually defined, the pIC50 is the IC50 on a negative log10 scale, so that one unit is a factor of ten. As usually defined, the melting point is the temperature, or range, at which the solid turns liquid.

Series [1] has as its target T1, CETP (Homo sapiens, UniProt P11597).
T1 construct: made in house; host or cells: CHO cells (serum-free conditioned medium)
T1 sequence (P11597 18-493): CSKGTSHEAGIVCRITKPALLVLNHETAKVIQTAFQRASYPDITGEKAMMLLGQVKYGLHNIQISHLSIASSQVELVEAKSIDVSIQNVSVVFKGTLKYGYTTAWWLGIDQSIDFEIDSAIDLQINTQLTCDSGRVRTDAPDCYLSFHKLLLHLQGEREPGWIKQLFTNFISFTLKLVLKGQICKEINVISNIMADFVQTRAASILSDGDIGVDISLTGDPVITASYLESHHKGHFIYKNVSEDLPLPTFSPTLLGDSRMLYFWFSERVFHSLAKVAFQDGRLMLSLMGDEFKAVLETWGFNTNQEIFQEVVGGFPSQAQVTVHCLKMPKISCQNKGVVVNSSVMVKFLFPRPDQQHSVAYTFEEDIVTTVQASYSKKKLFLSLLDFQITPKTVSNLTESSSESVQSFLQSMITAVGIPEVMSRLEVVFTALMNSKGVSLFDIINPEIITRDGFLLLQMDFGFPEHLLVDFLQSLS
The experiment in a line: CETP activity in vitro: transfer of [3H]CE from HDL donor to LDL acceptor particles. It counts as biochemical. In outline: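 Transfer of radiolabelled cholesteryl ester from HDL to LDL was followed over 2 h at 37 °C in Tris buffer (pH 7.4, 150 mM NaCl, 2 mM EDTA, 1% BSA), using CETP secreted by transfected CHO cells. Radioactivity in dextran sulfate/Mg-precipitated LDL was measured by scintillation counting, giving IC50.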

[2] abbreviates: 50% inhibition of [3H]CE transfer from HDL to LDL, 2 hours at 37° C., read-out: IC50(μm).
Setting [3] is: IC50(μm), 50% inhibition of [3H]CE transfer from HDL to LDL, 2 hours at 37° C.

pIC50: −log10 of the molar value. Where two headings read alike, the source gives them in different places. A value given as a limit tells only on which side of the number the result lay.

Consider `COC(=O)c1c(OC(=O)N(c2ccccc2)c2ccccc2)cc(C(F)(F)F)nc1C(F)(F)F` [Compound 25, Methyl 2,6-Bis(trifluoromethyl)-4-(diphenylaminocarbonyloxy)-3-pyridinecarboxylate], for which the melting point is 114 to 116 °C. In series [1] (setting [2]), the pIC50 is 4.40.
In turn, `COC(=O)c1c(C(F)F)nc(C(F)(F)F)c(C(=O)Sc2cc(C(C)(C)C)cc(C(C)(C)C)c2)c1CC(C)C` [Compound 151, Methyl 2-(Difluoromethyl)-5-{[(3,5-di-t-butylphenyl)thio]carbonyl}-4-(2-methylpropyl)-6-(trifluoromethyl)-3-pyridinecarboxylate] returned a melting point of 102.5 to 108.5 °C. Besides, the pIC50 in series [1] (setting [3]) was 4.22.
The like results for `COC(=O)c1c(C(F)F)nc(C(F)(F)F)c(C(=O)Sc2ccc(C)cc2C)c1CC(C)C` [Compound 152, Methyl 2-(Difluoromethyl)-5-{[(2,4-dimethylphenyl)thio]carbonyl}-4-(2-methylpropyl)-6-(trifluoromethyl)-3-pyridinecarboxylate] were, in that order, 98.5 to 102.5 °C and 4.22.
`COC(=O)c1c(C(F)F)nc(C(F)(F)F)c(C(=O)Sc2ccccc2OC)c1CC(C)C` [Compound 153, Methyl 2-(Difluoromethyl)-4-(2-methylpropyl)-5-{[(2-methoxyphenyl)thio]carbonyl}-6-(trifluoromethyl)-3-pyridinecarboxylate] came in with a melting point of 100 to 102 °C. In addition, the pIC50 in series [1] (setting [3]) is 4.00.
`COC(=O)c1c(C(F)F)nc(C(F)(F)F)c(C(=O)Sc2cccc(OC)c2)c1CC(C)C` [Compound 154, Methyl 2-(Difluoromethyl)-4-(2-methylpropyl)-5-{[(3-methoxyphenyl)thio]carbonyl}-6-(trifluoromethyl)-3-pyridinecarboxylate] displayed a melting point of 87 to 88.5 °C. Also, the pIC50 in series [1] (setting [3]) was 4.00.
The compound `COC(=O)c1c(C(F)F)nc(C(F)(F)F)c(C(=O)Sc2ccc(C(C)(C)C)cc2C(C)(C)C)c1CC(C)C` [Compound 155, Methyl 2-(Difluoromethyl)-5-{[(2,4-di-t-butylphenyl)thio]carbonyl}-4-(2-methylpropyl)-6-(trifluoromethyl)-3-pyridinecarboxylate] returned a melting point of 115.5 to 120.5 °C. Besides, in series [1] (setting [2]), the negative-log IC50 (pIC50) was 4.30.
In the case of `COC(=O)c1c(C(F)F)nc(C(F)(F)F)c(C(=O)Oc2c(C)cc([N+](=O)[O-])cc2C)c1CC(C)C` [Compound 176, 3-Methyl 5-(2,6-Dimethyl-4-nitrophenyl) 2-(Difluoromethyl)-4-(2-methylpropyl)-6-(trifluoromethyl)-3,5-pyridicarboxylate], the melting point lay in the range of 96 to 97 °C.
In the case of `O=Cc1c(C(F)F)nc(C(F)(F)F)c(C(=O)c2ccc3ccccc3c2)c1-c1ccccc1` [Compound 286], the pIC50 in series [1] (Table 8, read-out: IC50) is 4.93.
Same read-out and setting: as for `CC(C)CC(O)c1c(C(F)F)nc(C(F)(F)F)c(C(=O)c2ccc(C(F)(F)F)cc2)c1-c1ccc(F)cc1` (stereo not shown) [Compound 288], the figure is 4.72; as for `C=CC(OC(=O)c1ccccc1)c1c(C(F)F)nc(C(F)(F)F)c(C(=O)c2ccc(OCC)cc2)c1-c1ccccc1` (stereo not shown) [Compound 289], 4.26; as for `O=C(c1ccc(C(F)(F)F)cc1)c1c(C(F)(F)F)nc(C(F)F)c(CO)c1-c1ccc(F)cc1` [Compound 292], 4.79.
Same read-out and setting: under `O=Cc1c(C(F)F)nc(C(F)(F)F)c(C(=O)c2ccc(Cl)cc2)c1-c1ccccc1` [Compound 293] stands 4.99.
Still for that read-out and setting: as for `CCOC(=O)c1c(C(F)(F)F)nc(C(F)F)c(CN2CCCC2)c1-c1ccc(F)cc1` [Compound 294], the figure is 4.40.
`C=CC(O)c1c(C(F)F)nc(C(F)(F)F)c(C(=O)OC)c1CC(C)C` (stereo not shown) [Compound 295] showed a pIC50 in series [1] (IC50, Table 8) of less than 4.00.
`CCOC(=O)c1c(C(F)(F)F)nc(C(F)F)c(C(O)c2ccc(C(F)(F)F)cc2)c1-c1ccccc1` (stereo not shown) [Compound 296]: the pIC50 in series [1] (Table 8, read-out: IC50) was less than 4.00.
Same read-out and setting: as for `OCc1c(C(F)(F)F)nc(C(F)F)c(CN2CCCC2)c1-c1ccccc1` [Compound 297], the figure is less than 4.00.
